molecular target: T1, IDO1 (Homo sapiens, UniProt P14902); assay: IDO1 cell-based assay (HeLa cells, IFNgamma-induced, N-formylkynurenine/L-tryptophan by RFMS); details: 10 ng/mL IFNgamma, 24 hours
T1 construct: endogenous in cells; host or cells: HeLa cells (ATCC), IFNgamma-induced
Method in brief: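 N-formylkynurenine and tryptophan peak areas in media measured by RFMS (C18, isocratic, d-Trp standard), giving IC50 values by regression. Source: HeLa cells incubated 24 h with IFNgamma (10 ng/mL) plus test compound at 0.5% DMSO; parallel CellTiter-Glo viability read.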

T1 sequence (P14902 whole entry): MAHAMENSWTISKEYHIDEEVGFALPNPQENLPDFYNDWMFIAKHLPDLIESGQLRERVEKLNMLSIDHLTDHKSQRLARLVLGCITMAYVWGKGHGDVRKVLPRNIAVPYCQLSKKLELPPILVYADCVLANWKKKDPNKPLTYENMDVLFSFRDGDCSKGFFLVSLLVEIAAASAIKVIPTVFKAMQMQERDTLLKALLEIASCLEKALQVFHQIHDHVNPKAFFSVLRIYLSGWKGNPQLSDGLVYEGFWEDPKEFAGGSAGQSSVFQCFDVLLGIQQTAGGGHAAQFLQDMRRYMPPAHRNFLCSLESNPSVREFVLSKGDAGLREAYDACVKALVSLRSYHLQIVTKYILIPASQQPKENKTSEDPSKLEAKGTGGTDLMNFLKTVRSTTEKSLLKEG

IC50 [nM] | Structure (SMILES)
< 200 | CC[C@@H](NC(=O)c1ccc(Cl)cc1)[C@H]1[C@@H]2C[C@@H](NC(=O)c3ncccc3F)C[C@@H]21 [Compound 327, N-((1R,3S,5S,6r)-6-((R)-1-(4-chlorobenzamido)propyl)bicyclo[3.1.0]hexan-3-yl)-3-fluoropicolinamide]
200 to 2000 | O=C(Nc1ccc(Cl)cc1)N[C@H]1[C@@H]2C[C@H](Oc3ccnc4ccc(F)cc34)C[C@@H]21 [Compound 29, 1-(4-chlorophenyl)-3-((1R,3r,5S,6r)-3-((6-fluoroquinolin-4-yl)oxy)bicyclo[3.1.0]hexan-6-yl)urea]
> 5000 | O=C(NCc1ccc(Cl)cc1)C1[C@H]2CC(Oc3cc(C(F)(F)F)nc4ccc(F)cc34)C[C@@H]12 (stereo partly drawn) [Compound 17, (1R,5S)-N-(4-chlorobenzyl)-3-((6-fluoro-2-(trifluoromethyl)quinolin-4-yl)oxy)bicyclo[3.1.0]hexane-6-carboxamide]
> 5000 | C[C@@H](NC(=O)c1ccc(C#N)cc1)[C@H]1[C@@H]2C[C@H](O)C[C@@H]21 [Compound 296, 4-cyano-N-((R)-1-((1R,3R,5S,6r)-3-hydroxybicyclo[3.1.0]hexan-6-yl)ethyl)benzamide]
< 200 | CCC(NC(=O)c1ccc(Cl)cc1)[C@H]1[C@@H]2C[C@@H](n3cnc4cc(Cl)ccc43)C[C@@H]21 (stereo partly drawn) [Compound 272, 4-chloro-N-(1-((1R,3s,5S,6r)-3-(5-chloro-1H-benzo[d]imidazol-1-yl)bicyclo[3.1.0]hexan-6-yl)propyl)benzamide]
< 200 | CCC(NC(=O)c1ccc(Cl)cc1)C1C2CC(Oc3ncnc4cccc(F)c34)CC21 [Compound 37, 4-chloro-N-(1-((1R,3s,5S,6r)-3-((5-fluoroquinazolin-4-yl)oxy)bicyclo[3.1.0]hexan-6-yl)propyl)benzamide]
< 200 | CCC(NC(=O)c1ccc(Cl)cc1)[C@H]1[C@@H]2C[C@@H](n3ncc(=O)c4ccccc43)C[C@@H]21 (stereo partly drawn) [Compound 47, 4-chloro-N-(1-((1R,3s,5S,6r)-3-(4-oxocinnolin-1(4H)-yl)bicyclo[3.1.0]hexan-6-yl)propyl)benzamide]
< 200 | CC(NC(=O)c1ccc(C#N)cc1)[C@H]1[C@@H]2C[C@@H](n3cnc4cc(F)ccc4c3=O)C[C@@H]21 (stereo partly drawn) [Compound 120, 4-cyano-N-(1-((1R,3s,5S,6r)-3-(7-fluoro-4-oxoquinazolin-3(4H)-yl)bicyclo[3.1.0]hexan-6-yl)ethyl)benzamide]
< 200 | CCC(NC(=O)c1ccc(Cl)cc1)[C@H]1[C@@H]2C[C@@H](Oc3cccnc3Cl)C[C@@H]21 (stereo partly drawn) [Compound 60, 4-chloro-N-(1-((1R,3s,5S,6r)-3-((2-chloropyridin-3-yl)oxy)bicyclo[3.1.0]hexan-6-yl)propyl)benzamide]
< 200 | CCC(NC(=O)c1ccc(Cl)cc1)[C@H]1[C@@H]2C[C@@H](n3cc(C(=O)N4CCCC4)nn3)C[C@@H]21 (stereo partly drawn) [Compound 98, 4-chloro-N-(1-((1R,3s,5S,6r)-3-(4-(pyrrolidine-1-carbonyl)-1H-1,2,3-triazol-1-yl)bicyclo[3.1.0]hexan-6-yl)propyl)benzamide]
2000 to 5000 | CN(C(=O)Cc1ccc(Cl)cc1)[C@H]1[C@@H]2C[C@@H](Oc3cnnc4ccccc34)C[C@@H]21 [Compound 86, 2-(4-chlorophenyl)-N-((1R,3s,5S,6r)-3-(cinnolin-4-yloxy)bicyclo[3.1.0]hexan-6-yl)-N-methylacetamide]
< 200 | CC[C@@H](NC(=O)c1ccc(Cl)cc1)[C@H]1[C@@H]2C[C@@H](n3cc(C(=O)OC)cn3)C[C@@H]21 [Compound 326, methyl 1-((1R,3S,5S,6r)-6-((R)-1-(4-chlorobenzamido)propyl)bicyclo[3.1.0]hexan-3-yl)-1H-pyrazole-4-carboxylate]
< 200 | CCC(NC(=O)c1ccc(Cl)cc1)[C@H]1[C@@H]2C[C@@H](n3ncc4ccncc43)C[C@@H]21 (stereo partly drawn) [Compound 174, N-(1-((1R,3s,5S,6r)-3-(1H-pyrazolo[3,4-c]pyridin-1-yl)bicyclo[3.1.0]hexan-6-yl)propyl)-4-chlorobenzamide]
< 200 | CCC(NC(=O)c1ccc(Cl)cc1)[C@H]1[C@@H]2C[C@@H](Oc3ncccc3F)C[C@@H]21 (stereo partly drawn) [Compound 39, 4-chloro-N-(1-((1R,3s,5S,6r)-3-((3-fluoropyridin-2-yl)oxy)bicyclo[3.1.0]hexan-6-yl)propyl)benzamide]
200 to 2000 | CCC(NC(=O)c1ccc(C#N)cn1)C1C2CC(Oc3cnnc4ccccc34)CC21 [Compound 82, N-(1-((1R,3s,5S,6r)-3-(cinnolin-4-yloxy)bicyclo[3.1.0]hexan-6-yl)propyl)-5-cyanopicolinamide]
< 200 | C=Cc1cnn([C@@H]2C[C@@H]3[C@H](C2)[C@H]3[C@@H](CC)NC(=O)c2ccc(Cl)cc2)c1 [Compound 305, 4-chloro-N-((R)-1-((1R,3S,5S,6r)-3-(4-vinyl-1H-pyrazol-1-yl)bicyclo[3.1.0]hexan-6-yl)propyl)benzamide]

IC50 [nM] | Structure (SMILES)
< 200 | CCC(NC(=O)c1ccc(Cl)cc1)[C@H]1[C@@H]2C[C@@H](NC(=O)c3ccc4ccccc4n3)C[C@@H]21 (stereo partly drawn) [Compound 118, N-((1R,3s,5S,6r)-6-(1-(4-chlorobenzamido)propyl)bicyclo[3.1.0]hexan-3-yl)quinoline-2-carboxamide]
< 200 | CC[C@@H](NC(=O)c1ccc(Cl)cc1)[C@H]1[C@@H]2C[C@@H](n3nccc3C3CC3)C[C@@H]21 [Compound 342, 4-chloro-N-((R)-1-((1R,3S,5S,6r)-3-(5-cyclopropyl-1H-pyrazol-1-yl)bicyclo[3.1.0]hexan-6-yl)propyl)benzamide]
200 to 2000 | COc1ccc(C(=O)NC[C@@H]2[C@H]3C[C@H](n4cnc5cc(F)c(F)cc54)C[C@@H]23)cn1 [Compound 318, N-(((1R,3s,5S,6r)-3-(5,6-difluoro-1H-benzo[d]imidazol-1-yl)bicyclo[3.1.0]hexan-6-yl)methyl)-6-methoxynicotinamide]
< 200 | CC(C(=O)Nc1ccc(Cl)cc1)[C@H]1[C@@H]2C[C@@H](n3cnc4cc(F)c(F)cc43)C[C@@H]21 (stereo partly drawn) [Compound 281, N-(4-chlorophenyl)-2-((1R,3s, 5S, 6r)-3-(5,6-difluoro-1H-benzo[d]imidazol-1-yl)bicyclo[3.1.0]hexan-6-yl)propanamide]
< 200 | CC[C@@H](NC(=O)c1ccc(Cl)cc1)[C@H]1[C@@H]2C[C@H](c3cncc(C4CC4)c3)C[C@@H]21 [Compound 303, 4-chloro-N-((R)-1-((1R,3R,5S,6r)-3-(5-cyclopropylpyridin-3-yl)bicyclo[3.1.0]hexan-6-yl)propyl)benzamide]
< 200 | N#Cc1ccc(C(=O)NC[C@@H]2[C@H]3C[C@H](n4cnc5cc(F)c(F)cc54)C[C@@H]23)cc1 [Compound 302, 4-cyano-N-(((1R,3s,5S,6r)-3-(5,6-difluoro-1H-benzo[d]imidazol-1-yl)bicyclo[3.1.0]hexan-6-yl)methyl)benzamide]
200 to 2000 | CCC(NC(=O)c1ccc(Cl)cc1)[C@H]1[C@@H]2C[C@@H](n3cc(C(C)(C)O)nn3)C[C@@H]21 (stereo partly drawn) [Compound 141, 4-chloro-N-((R)-1-((1R,3S,5S,6r)-3-(4-(2-hydroxypropan-2-yl)-1H-1,2,3-triazol-1-yl)bicyclo[3.1.0]hexan-6-yl)propyl)benzamide]
200 to 2000 | CCC(NC(=O)c1ccc(Cl)cc1)[C@H]1[C@@H]2C[C@@H](N=[N+]=[N-])C[C@@H]21 (stereo partly drawn) [Compound 90, N-(1-((1R,3s,5S,6r)-3-azidobicyclo[3.1.0]hexan-6-yl)propyl)-4-chlorobenzamide]
< 200 | O=C(NC[C@@H]1[C@H]2C[C@H](n3cnc4cc(F)c(F)cc43)C[C@@H]12)c1ccc(F)cc1 [Compound 314, N-(((1R,3s,5S,6r)-3-(5,6-difluoro-1H-benzo[d]imidazol-1-yl)bicyclo[3.1.0]hexan-6-yl)methyl)-4-fluorobenzamide]
< 200 | COc1ccc(C(=O)NC(C)[C@H]2[C@@H]3C[C@@H](Oc4ncnc5cc(F)ccc45)C[C@@H]32)cn1 (stereo partly drawn) [Compound 124, N-(1-((1R,3s,5S,6r)-3-((7-fluoroquinazolin-4-yl)oxy)bicyclo[3.1.0]hexan-6-yl)ethyl)-6-methoxynicotinamide]
< 200 | CCC(NC(=O)c1ccc(Cl)cc1)[C@H]1[C@@H]2C[C@@H](Oc3ncccc3C)C[C@@H]21 (stereo partly drawn) [Compound 41, 4-chloro-N-(1-((1R,3s,5S,6r)-3-((3-methylpyridin-2-yl)oxy)bicyclo[3.1.0]hexan-6-yl)propyl)benzamide]
2000 to 5000 | CCC(NC(=O)c1ccc(Cl)cc1)[C@H]1[C@@H]2C[C@H](O)C[C@@H]21 (stereo partly drawn) [Compound 1, 4-chloro-N-(1-((1R,3r,5S,6r)-3-hydroxybicyclo[3.1.0]hexan-6-yl)propyl)benzamide]
< 200 | CCC(NC(=O)c1ccc(Cl)cc1)[C@H]1[C@@H]2C[C@@H](Oc3ccccc3CC(N)=O)C[C@@H]21 (stereo partly drawn) [Compound 45, N-(1-((1R,3s,5S,6r)-3-(2-(2-amino-2-oxoethyl)phenoxy)bicyclo[3.1.0]hexan-6-yl)propyl)-4-chlorobenzamide]
< 200 | CCC(NC(=O)c1ccc(Cl)cc1)[C@H]1[C@@H]2C[C@@H](n3nnc4ccccc43)C[C@@H]21 (stereo partly drawn) [Compound 99, N-(1-((1R,3s,5S,6r)-3-(1H-benzo[d][1,2,3]triazol-1-yl)bicyclo[3.1.0]hexan-6-yl)propyl)-4-chlorobenzamide]
> 5000 | O=C(NC1C2CN(c3ccnc4ccc(F)cc34)CC21)C(CO)c1ccccc1 (centres unmarked) [Compound 110, N-(3-(6-fluoroquinolin-4-yl)-3-azabicyclo[3.1.0]hexan-6-yl)-3-hydroxy-2-phenylpropanamide]
< 200 | C=C(C)c1cn([C@@H]2C[C@@H]3[C@H](C2)[C@H]3C(CC)NC(=O)c2ccc(Cl)cc2)nn1 (stereo partly drawn) [Compound 147, 4-chloro-N-(1-((1R,3s,5S,6r)-3-(4-(prop-1-en-2-yl)-1H-1,2,3-triazol-1-yl)bicyclo[3.1.0]hexan-6-yl)propyl)benzamide]
